Test results published in publication PMC10150354, “Linearization of the Brevicidine and Laterocidine Lipopeptides Yields Analogues That Retain Full Antibacterial Activity” (Journal of Medicinal Chemistry, 2023).
Where a SMILES comes first, the peptide text is derived from it. [ ]: non-standard residue; d: D form. The star is where a group is joined. ξ: configuration not given here. Octanoyl(7-Me) = CC(C)CCCCCC(=O)*; Hexanoyl(4ξ-Me) = CCC(C)CCC(=O)*; dOrn = NCCC[C@@H](N)C(=O)O; Orn = NCCC[C@H](N)C(=O)O

Legend:
[1] = tested on: E. coli (MCR-1); type: cell-based, Escherichia coli; settings: microbroth dilution per CLSI, MHB, 18 h at 37 °C, visual inspection, three technical replicates, E. coli 25922 carrying mcr-1
In short: (§1)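 CLSI broth microdilution in MHB, polypropylene plates; log-phase bacteria (OD600 ~0.5, grown in TSB, with kanamycin for the E. coli ATCC 25922 MCR-1 strain) added at 2 × 10^5 CFU/mL. Read visually after 18 h at 37 °C with shaking; MIC = lowest concentration preventing visible growth, three technical replicates.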

[2] = tested on: E. coli ATCC 25922; type: cell-based, Escherichia coli; settings: MIC, microbroth dilution per CLSI, MHB, 18 h at 37 °C, visual inspection, three technical replicates
In short: as §1

[3] = tested on: P. aeruginosa PAO1; type: cell-based, Pseudomonas aeruginosa; settings: microbroth dilution per CLSI, MHB, 18 h at 37 °C, visual inspection, three technical replicates
In short: as §1

[4] = tested on: A. baumannii ATCC 17961; type: cell-based, Acinetobacter baumannii; settings: microbroth dilution per CLSI, MHB, 18 h at 37 °C, visual inspection, three technical replicates
In short: as §1

[5] = tested on: S. aureus USA300; type: cell-based, Staphylococcus aureus; settings: microbroth dilution per CLSI, MHB, 18 h at 37 °C, visual inspection, three technical replicates
In short: as §1

[6] = tested on: K. pneumoniae ATCC 13883; type: cell-based, Klebsiella pneumoniae; settings: microbroth dilution per CLSI, MHB, 18 h at 37 °C, visual inspection, three technical replicates
In short: as §1

## CCC(C)CCC(=O)N[C@H](CC(N)=O)C(=O)N[C@H](Cc1ccc(O)cc1)C(=O)N[C@H](Cc1c[nH]c2ccccc12)C(=O)N[C@H](CCCN)C(=O)N[C@@H](CCCN)C(=O)NCC(=O)N[C@H](CCCN)C(=O)N[C@@H](Cc1c[nH]c2ccccc12)C(=O)N[C@H](C(=O)N[C@H](C(=O)NCC(N)=O)[C@@H](C)CC)[C@@H](C)O (stereo partly drawn) [Δ12LB-NH2 (9)] ({Hexanoyl(4ξ-Me)}-[dN][dY][dW][dOrn][Orn]G[dOrn]WTIG-NH2)
[1]
  Antibacterial activity (MIC) E. coli (MCR-1): 16 mg/L
[2]
  Antibacterial activity (MIC) E. coli ATCC 25922: 8 mg/L
[3]
  Antibacterial activity (MIC) P. aeruginosa PAO1: 4 mg/L
[4]
  Antibacterial activity (MIC) A. baumannii ATCC 17961: 8 mg/L
[5]
  Antibacterial activity (MIC) S. aureus USA300: >32 mg/L
[6]
  Antibacterial activity (MIC) K. pneumoniae ATCC 13883: 8 mg/L

## CC[C@H](C)[C@H](NC(=O)[C@@H](NC(=O)[C@H](Cc1c[nH]c2ccccc12)NC(=O)[C@@H](CCCN)NC(=O)CNC(=O)[C@H](CCCN)NC(=O)[C@@H](CCCN)NC(=O)[C@@H](Cc1c[nH]c2ccccc12)NC(=O)[C@@H](Cc1ccc(O)cc1)NC(=O)[C@@H](CO)NC(=O)CCCCCC(C)C)[C@@H](C)O)C(=O)N[C@@H](CC(N)=O)C(N)=O [Δ12–13LL-NH2 (10)] ({Octanoyl(7-Me)}-[dS][dY][dW][dOrn][Orn]G[dOrn]WTIN-NH2)
[1]
  Antibacterial activity (MIC) E. coli (MCR-1): 8 mg/L
[2]
  Antibacterial activity (MIC) E. coli ATCC 25922: 4 mg/L
[3]
  Antibacterial activity (MIC) P. aeruginosa PAO1: 4 mg/L
[4]
  Antibacterial activity (MIC) A. baumannii ATCC 17961: 4 mg/L
[5]
  Antibacterial activity (MIC) S. aureus USA300: >32 mg/L
[6]
  Antibacterial activity (MIC) K. pneumoniae ATCC 13883: 8 to 16 mg/L

## CC[C@H](C)[C@H](NC(=O)[C@@H](NC(=O)[C@H](Cc1c[nH]c2ccccc12)NC(=O)[C@@H](CCCN)NC(=O)CNC(=O)[C@H](CCCN)NC(=O)[C@@H](CCCN)NC(=O)[C@@H](Cc1c[nH]c2ccccc12)NC(=O)[C@@H](Cc1ccc(O)cc1)NC(=O)[C@@H](CO)NC(=O)CCCCCC(C)C)[C@@H](C)O)C(=O)N[C@@H](CC(N)=O)C(=O)NCC(N)=O [Δ13LL-NH2 (8)] ({Octanoyl(7-Me)}-[dS][dY][dW][dOrn][Orn]G[dOrn]WTING-NH2)
[1]
  Antibacterial activity (MIC) E. coli (MCR-1): 8 mg/L
[2]
  Antibacterial activity (MIC) E. coli ATCC 25922: 8 mg/L
[3]
  Antibacterial activity (MIC) P. aeruginosa PAO1: 4 mg/L
[4]
  Antibacterial activity (MIC) A. baumannii ATCC 17961: 4 mg/L
[5]
  Antibacterial activity (MIC) S. aureus USA300: >32 mg/L
[6]
  Antibacterial activity (MIC) K. pneumoniae ATCC 13883: 4 to 8 mg/L
